“And” between values parts separate entries of the source, which are not always exact repeats. Equal values may be shown once.
Tested on: WT ELIC
Assay: Fluorescence stopped-flow liposomal Tl+ flux assay, symmetric liposomes
Format: biochemical, Erwinia chrysanthemi
Set-up: Tl+ flux quenching rate, Avg. / Tl+ flux quenching rate: unit not given here
Details: for Avg (stopped-flow fluorescence quenching rate) / Rate (stopped-flow fluorescence quenching rate): WT in PC liposomes; for Avg (stopped-flow fluorescence quenching rate): average of experiments; for Rate (stopped-flow fluorescence quenching rate) / Tl+ flux quenching rate: single experiments
Procedure: The fluorescence sequential-mixing stopped-flow liposomal flux measurements were carried using an SX20 stopped-flow spectrofluorometer (Applied Photophysics) and Pro-Data SX software[13],[30]. 7.5 mg of the respective lipid mixture (POPC, 1:1 POPC: POPE, 1:1 POPC:POPG, 3:1 POPC:POPE, 3:1 POPC:POPG, 2:1:1 POPC:POPE:POPG) was dried in a glass vial to a thin film under a constant stream of N2. The lipids were then further dried under vacuum in a desiccator overnight. The following day the lipids were hydrated in 500 µl of reconstitution buffer (100 mM NaNO3, 10 mM HEPES, pH 7) (Buffer R), 250 µl of 75 mM 8-Aminonaphthalene-1,3,6-Trisulfonic Acid (ANTS, ThermoFisher Scientific) in buffer R, and doped with ~18 mg of CHAPS (Anatrace). The mixture was vortexed and then sonicated with heat until completely solubilized. Following the sonication, the solution was brought to RT then 3.5 µl of 6.7 mg/ml ELIC in Buffer A with 0.02% DDM was added (3 µg per mg of lipid). This combined solution was incubated at RT for 30 min, followed by the addition of 1 ml of 1:1 v/v SM-2 BioBeads in Buffer R and an additional 250 µl of 75 mM ANTS in Buffer R. This mixture was incubated at RT for 2.5 hr with gentle mixing. The liposome suspension was then extruded with an Avanti mini-extruder and 0.1 µm membrane (30×). The extruded liposomes were stored at 13 °C overnight with gentle rotation. The next day, the liposomes were diluted to 2.5 mL using assay buffer (140 mM NaNO3, 10 mM HEPES, pH 7) (Stopped-flow Buffer A), loaded into a PD-10 desalting column (Cytiva), eluted with 3 mL of Stopped-flow Buffer A and subsequently diluted 5-fold with Stopped-flow Buffer A.
Using propylamine as the agonist, the assay and analysis was carried out as previously described[13],[30]. ELIC-containing liposomes were first mixed 1:1 with Buffer A containing 2× the concentration of propylamine. After a variable delay of 10 ms to 25 s, the sample was then mixed 1:1 with a quenching buffer (90 mM NaNO3, 50 mM TlNO3, 10 mM HEPES, pH 7), and ANTS fluorescence (ex. 360 nm, fluorescence above 420 nm) was recorded for 1 s. For each delay time, 5 repeat measurements were obtained. The data were collected using Applied Photophysics Pro-Data SX software. The fluorescence quenching traces were fit to a stretched exponential (Eq. 2a) and the rate of Tl^+ influx was determined at 2 ms (Eq. 2b).2a Ft=F∞+F0−F∞⋅e^−t/τ^β 2b kt=β/τ⋅2ms/τ^(β−1) where Ft, F∞, F0 are the fluorescence at time t, final fluorescence and initial fluorescence. τ is the time constant, β the stretched exponential factor, and kt the calculated rate of Tl^+ influx at 2 ms. The time course of desensitization was also fit to a double exponential and a weighted time constant was calculated as was done for the patch-clamp data using Origin 2019b. All replicates were taken from independent samples.

CCCN [propylamine]
Avg (stopped-flow fluorescence quenching rate) (1 mM PA, delay time 0.1): 0.1082 | Avg (stopped-flow fluorescence quenching rate) (1 mM PA, delay time 0.25): 0.06695 | Avg (stopped-flow fluorescence quenching rate) (1 mM PA, delay time 0.5): 0.1937 | Avg (stopped-flow fluorescence quenching rate) (1 mM PA, delay time 1): 0.6717 | Avg (stopped-flow fluorescence quenching rate) (1 mM PA, delay time 2.5): 0.1973 | Avg (stopped-flow fluorescence quenching rate) (1 mM PA, delay time 5): 0.1019 | Avg (stopped-flow fluorescence quenching rate) (1 mM PA, delay time 10): 0.1686 | Avg (stopped-flow fluorescence quenching rate) (3 mM PA, delay time 0): 0 | Rate (stopped-flow fluorescence quenching rate) (3 mM PA, delay time 0): 0 | Avg (stopped-flow fluorescence quenching rate) (3 mM PA, delay time 0.025): 24.9362 | Avg (stopped-flow fluorescence quenching rate) (3 mM PA, delay time 0.05): 279.785 | Avg (stopped-flow fluorescence quenching rate) (3 mM PA, delay time 0.1): 279.666 | Avg (stopped-flow fluorescence quenching rate) (3 mM PA, delay time 0.25): 300.719 | Avg (stopped-flow fluorescence quenching rate) (3 mM PA, delay time 0.5): 352.59 | Avg (stopped-flow fluorescence quenching rate) (3 mM PA, delay time 1): 284.973 | Avg (stopped-flow fluorescence quenching rate) (3 mM PA, delay time 2.5): 176.344 | Avg (stopped-flow fluorescence quenching rate) (3 mM PA, delay time 5): 145.791 | Avg (stopped-flow fluorescence quenching rate) (3 mM PA, delay time 10): 107.502 | Avg (stopped-flow fluorescence quenching rate) (10 mM PA, delay time 0): 0 | Rate (stopped-flow fluorescence quenching rate) (10 mM PA, delay time 0): 0 | Avg (stopped-flow fluorescence quenching rate) (10 mM PA, delay time 0.01): 3.242 | Avg (stopped-flow fluorescence quenching rate) (10 mM PA, delay time 0.025): 7.793 | Avg (stopped-flow fluorescence quenching rate) (10 mM PA, delay time 0.05): 10.0904 | Avg (stopped-flow fluorescence quenching rate) (10 mM PA, delay time 0.05 as printed in r31 (between 0.25 and 1)): 13.718 | Avg (stopped-flow fluorescence quenching rate) (10 mM PA, delay time 0.1): 10.8806 | Avg (stopped-flow fluorescence quenching rate) (10 mM PA, delay time 0.25): 11.6946 | Avg (stopped-flow fluorescence quenching rate) (10 mM PA, delay time 1): 9.9293 | Avg (stopped-flow fluorescence quenching rate) (10 mM PA, delay time 2.5): 4.516 | Avg (stopped-flow fluorescence quenching rate) (10 mM PA, delay time 5): 0.8684 | Rate (stopped-flow fluorescence quenching rate) (10 mM PA, delay time 10, listed as PA): 0.134 and 0.08335 and 0.06725 | Avg (stopped-flow fluorescence quenching rate) (30 mM PA, delay time 0): 0 | Rate (stopped-flow fluorescence quenching rate) (30 mM PA, delay time 0): 0 | Avg (stopped-flow fluorescence quenching rate) (30 mM PA, delay time 0.01): 8.996 | Avg (stopped-flow fluorescence quenching rate) (30 mM PA, delay time 0.025): 9.575 | Avg (stopped-flow fluorescence quenching rate) (30 mM PA, delay time 0.05): 10.6204 | Avg (stopped-flow fluorescence quenching rate) (30 mM PA, delay time 0.1): 12.7838 | Avg (stopped-flow fluorescence quenching rate) (30 mM PA, delay time 0.25): 12.1642 | Avg (stopped-flow fluorescence quenching rate) (30 mM PA, delay time 0.5): 10.2984 | Avg (stopped-flow fluorescence quenching rate) (30 mM PA, delay time 1): 6.967 | Avg (stopped-flow fluorescence quenching rate) (30 mM PA, delay time 2.5): 2.226 | Avg (stopped-flow fluorescence quenching rate) (30 mM PA, delay time 5): 0.2318 | Rate (stopped-flow fluorescence quenching rate) (30 mM PA, delay time 25, listed as PA): 0.1998 and 0.3265 | Tl+ flux quenching rate (WT 1:1 PC:PE 10 mM PA, delay 0.1 s, listed as PA): 18.5265 and 20.1957 and 27.1402 | Tl+ flux quenching rate (WT 1:1 PC:PE 10 mM PA, delay 0.25 s, listed as PA): 14.1307 and 20.5822 and 22.3191 | Tl+ flux quenching rate (WT 1:1 PC:PE 10 mM PA, delay 5 s, listed as PA): 8.309 and 12.2434 and 8.587 | Tl+ flux quenching rate (WT 3:1 PC:PE 10 mM PA, delay 0.05 s, listed as PA): 17.3372 and 23.7705 and 12.3709 | Tl+ flux quenching rate (WT 3:1 PC:PE 10 mM PA, delay 0.1 s, listed as PA): 25.2651 and 29.8644 and 21.5739 | Tl+ flux quenching rate (WT 3:1 PC:PE 10 mM PA, delay 0.5 s, listed as PA): 30.0354 and 34.8933 and 24.5328 | Tl+ flux quenching rate (WT 3:1 PC:PG 10 mM PA, delay 1 s, listed as PA): 9.374 and 10.6202 and 12.8093 | Tl+ flux quenching rate (WT 3:1 PC:PG 10 mM PA, delay 2.5 s, listed as PA): 7.906 and 8.478 and 12.3833 | Tl+ flux quenching rate (WT 3:1 PC:PG 10 mM PA, delay 5 s, listed as PA): 5.2352 and 10.1414 and 9.072 | Tl+ flux quenching rate (WT PC 10 mM PA, delay 10 s, listed as PA): 0.134 and 0.08335 and 0.06725

Reference: article PMC9668969 (Nature Communications, 2022)
